Laboratory results: patent US20230111310A1, “CARBOXYLIC ACID DERIVATIVE-SUBSTITUTED IMINO ARYL COMPOUND, PREPARATION METHOD THEREFOR, HERBICIDAL COMPOSITION AND USE THEREOF” (Qingdao Kingagroot Chemical Compound Co., Ltd., priority 2020, published 2023)

Tests used:
Assay in all cases: Weeding effect in post-emergence stage
Assay type in all cases: in vivo
Digitaria sanguinalis = conditions: for Weeding effect in post-emergence stage, Digitaria sanguinalis: level of fresh weight growth control rate; for Weeding effect in post-emergence stage, Digitaria sanguinalis (level): fresh weight control rate level
In short: (§1)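 Compound, dissolved in acetone and diluted in water with Tween 80 plus methyl oleate EC (1.5 liter/ha), is sprayed onto 2-3 leaf potted plants. Rates span 7.5–500 g/ha. After 3 weeks of greenhouse culture, weeding effect is counted as the mean of triplicates.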

Alopecurus japonicus = conditions: for Weeding effect in post-emergence stage, Alopecurus japonicus: level of fresh weight growth control rate; for Weeding effect in post-emergence stage, Alopecurus japonicus (level): fresh weight control rate level
In short: as §1

Setaria viridis = conditions: for Weeding effect in post-emergence stage, Setaria viridis: level of fresh weight growth control rate; for Weeding effect in post-emergence stage, Setaria viridis (level): fresh weight control rate level
In short: as §1

Abutilon theophrasti = conditions: for Weeding effect in post-emergence stage, Abutilon theophrasti: level of fresh weight growth control rate; for Weeding effect in post-emergence stage, Abutilon theophrasti (level): fresh weight control rate level
In short: as §1

Eleusine indica = conditions: for Weeding effect in post-emergence stage, Eleusine indica: level of fresh weight growth control rate; for Weeding effect in post-emergence stage, Eleusine indica (level): fresh weight control rate level
In short: as §1

Echinochloa crusgalli = conditions: for Weeding effect in post-emergence stage, Echinochloa crusgalli: level of fresh weight growth control rate; for Weeding effect in post-emergence stage, Echinochloa crusgalli (level): fresh weight control rate level
In short: as §1

With COC(=O)[C@H](O/N=C/c1cc(-n2c(=O)cc(C(F)(F)F)n(C)c2=O)c(F)cc1Cl)c1ccccc1 [337(R)] the “Weeding effect in post-emergence stage, Digitaria sanguinalis” value (Digitaria sanguinalis; Dose 15 g/ha) was 5 (Level 5: growth control rate is above 85%), the “Weeding effect in post-emergence stage, Alopecurus japonicus” value (Alopecurus japonicus; Dose 15 g/ha) was 5 (Level 5: growth control rate is above 85%) and the “Weeding effect in post-emergence stage, Setaria viridis” value (Setaria viridis; Dose 15 g/ha) was 5 (Level 5: growth control rate is above 85%). The “Weeding effect in post-emergence stage, Abutilon theophrasti” value (Abutilon theophrasti; Dose 15 g/ha) was 5 (Level 5: growth control rate is above 85%), the “Weeding effect in post-emergence stage, Eleusine indica” value (Eleusine indica; Dose 15 g/ha) was 5 (Level 5: growth control rate is above 85%) and the “Weeding effect in post-emergence stage, Echinochloa crusgalli” value (Echinochloa crusgalli; Dose 15 g/ha) was 5 (Level 5: growth control rate is above 85%).
COC(=O)[C@@H](C)O/N=C/c1cc(-n2c(=O)cc(C(F)(F)F)n(C)c2=O)c(F)cc1C(F)(F)F [342(R)] was tested, and the “Weeding effect in post-emergence stage, Digitaria sanguinalis” value (Digitaria sanguinalis; Dose 15 g/ha) was 5 (Level 5: growth control rate is above 85%), the “Weeding effect in post-emergence stage, Alopecurus japonicus” value (Alopecurus japonicus; Dose 15 g/ha) was 5 (Level 5: growth control rate is above 85%) and the “Weeding effect in post-emergence stage, Setaria viridis” value (Setaria viridis; Dose 15 g/ha) was 5 (Level 5: growth control rate is above 85%). The “Weeding effect in post-emergence stage, Abutilon theophrasti” value (Abutilon theophrasti; Dose 15 g/ha) was 5 (Level 5: growth control rate is above 85%), the “Weeding effect in post-emergence stage, Eleusine indica” value (Eleusine indica; Dose 15 g/ha) was 5 (Level 5: growth control rate is above 85%) and the “Weeding effect in post-emergence stage, Echinochloa crusgalli” value (Echinochloa crusgalli; Dose 15 g/ha) was 5 (Level 5: growth control rate is above 85%).
In the case of COC(=O)[C@@H](C)O/N=C/c1cc(-n2c(=O)cc(C(F)(F)F)n(C)c2=O)c(F)cc1C#N [344(R)], the “Weeding effect in post-emergence stage, Digitaria sanguinalis” value (Digitaria sanguinalis; Dose 15 g/ha) is reported as 5 (Level 5: growth control rate is above 85%), the “Weeding effect in post-emergence stage, Alopecurus japonicus” value (Alopecurus japonicus; Dose 15 g/ha) is reported as 5 (Level 5: growth control rate is above 85%) and the “Weeding effect in post-emergence stage, Setaria viridis” value (Setaria viridis; Dose 15 g/ha) is reported as 5 (Level 5: growth control rate is above 85%). The “Weeding effect in post-emergence stage, Abutilon theophrasti” value (Abutilon theophrasti; Dose 15 g/ha) was 5 (Level 5: growth control rate is above 85%), the “Weeding effect in post-emergence stage, Eleusine indica” value (Eleusine indica; Dose 15 g/ha) was 5 (Level 5: growth control rate is above 85%) and the “Weeding effect in post-emergence stage, Echinochloa crusgalli” value (Echinochloa crusgalli; Dose 15 g/ha) was 5 (Level 5: growth control rate is above 85%).
With COC(=O)[C@@H](C)O/N=C/c1cc(-n2c(=O)cc(C(F)(F)F)n(C)c2=S)c(F)cc1Cl [347(R)] the “Weeding effect in post-emergence stage, Digitaria sanguinalis” value (Digitaria sanguinalis; Dose 30 g/ha) was 5 (Level 5: growth control rate is above 85%), the “Weeding effect in post-emergence stage, Alopecurus japonicus” value (Alopecurus japonicus; Dose 30 g/ha) was 5 (Level 5: growth control rate is above 85%) and the “Weeding effect in post-emergence stage, Setaria viridis” value (Setaria viridis; Dose 30 g/ha) was 5 (Level 5: growth control rate is above 85%). For the same compound, the “Weeding effect in post-emergence stage, Abutilon theophrasti” value (Abutilon theophrasti; Dose 30 g/ha) was 5 (Level 5: growth control rate is above 85%), the “Weeding effect in post-emergence stage, Eleusine indica” value (Eleusine indica; Dose 30 g/ha) was 5 (Level 5: growth control rate is above 85%) and the “Weeding effect in post-emergence stage, Echinochloa crusgalli” value (Echinochloa crusgalli; Dose 30 g/ha) was 5 (Level 5: growth control rate is above 85%).
In the case of COC(=O)[C@@H](C)O/N=C/c1cc(-n2c(=S)cc(C(F)(F)F)n(C)c2=S)c(F)cc1Cl [351(R)], the “Weeding effect in post-emergence stage, Digitaria sanguinalis (level)” value (from here on “Weeding effect … Digitaria sanguinalis (level)”) (Digitaria sanguinalis; Dose 60 g/ha) is reported as 5 (Level 5: growth control rate is above 85%), the “Weeding effect in post-emergence stage, Alopecurus japonicus (level)” value (“Weeding effect … Alopecurus japonicus (level)” for short) (Alopecurus japonicus; Dose 60 g/ha) is reported as 5 (Level 5: growth control rate is above 85%) and the “Weeding effect in post-emergence stage, Setaria viridis (level)” value (“Weeding effect … Setaria viridis (level)” below) (Setaria viridis; Dose 60 g/ha) is reported as 5 (Level 5: growth control rate is above 85%). The “Weeding effect in post-emergence stage, Abutilon theophrasti (level)” value (from here on “Weeding effect … Abutilon theophrasti (level)”) (Abutilon theophrasti; Dose 60 g/ha) was 5 (Level 5: growth control rate is above 85%), the “Weeding effect in post-emergence stage, Eleusine indica (level)” value (“Weeding effect … Eleusine indica (level)” below) (Eleusine indica; Dose 60 g/ha) was 5 (Level 5: growth control rate is above 85%) and the “Weeding effect in post-emergence stage, Echinochloa crusgalli (level)” value (from here on “Weeding effect … Echinochloa crusgalli (level)”) (Echinochloa crusgalli; Dose 60 g/ha) was 5 (Level 5: growth control rate is above 85%).
With COC(=O)[C@@H](C)O/N=C/c1cc(-n2c(=S)cc(C(F)(F)F)n(C)c2=O)c(F)cc1Br [388(R)] the “Weeding effect … Digitaria sanguinalis (level)” value (Digitaria sanguinalis; Dose 15 g/ha) was 5 (Level 5: growth control rate is above 85%), the “Weeding effect … Alopecurus japonicus (level)” value (Alopecurus japonicus; Dose 15 g/ha) was 5 (Level 5: growth control rate is above 85%) and the “Weeding effect … Setaria viridis (level)” value (Setaria viridis; Dose 15 g/ha) was 5 (Level 5: growth control rate is above 85%). For the same compound, the “Weeding effect … Abutilon theophrasti (level)” value (Abutilon theophrasti; Dose 15 g/ha) was 5 (Level 5: growth control rate is above 85%), the “Weeding effect … Eleusine indica (level)” value (Eleusine indica; Dose 15 g/ha) was 5 (Level 5: growth control rate is above 85%) and the “Weeding effect … Echinochloa crusgalli (level)” value (Echinochloa crusgalli; Dose 15 g/ha) was 5 (Level 5: growth control rate is above 85%).
In the case of COC(=O)[C@@H](C)O/N=C/c1cc(-n2c(=S)cc(C(F)(F)F)n(C)c2=S)c(F)cc1C#N [390(R)], the “Weeding effect … Digitaria sanguinalis (level)” value (Digitaria sanguinalis; Dose 15 g/ha) is reported as 5 (Level 5: growth control rate is above 85%), the “Weeding effect … Alopecurus japonicus (level)” value (Alopecurus japonicus; Dose 15 g/ha) is reported as 5 (Level 5: growth control rate is above 85%) and the “Weeding effect … Setaria viridis (level)” value (Setaria viridis; Dose 15 g/ha) is reported as 5 (Level 5: growth control rate is above 85%). The “Weeding effect … Abutilon theophrasti (level)” value (Abutilon theophrasti; Dose 15 g/ha) was 5 (Level 5: growth control rate is above 85%), the “Weeding effect … Eleusine indica (level)” value (Eleusine indica; Dose 15 g/ha) was 5 (Level 5: growth control rate is above 85%) and the “Weeding effect … Echinochloa crusgalli (level)” value (Echinochloa crusgalli; Dose 15 g/ha) was 5 (Level 5: growth control rate is above 85%).
In the case of COC(=O)[C@@H](C)O/N=C/c1cc(-n2c(=S)cc(C(F)(F)F)n(C)c2=S)c(F)cc1Br [391(R)], the “Weeding effect … Digitaria sanguinalis (level)” value (Digitaria sanguinalis; Dose 60 g/ha) is reported as 5 (Level 5: growth control rate is above 85%), the “Weeding effect … Alopecurus japonicus (level)” value (Alopecurus japonicus; Dose 60 g/ha) is reported as 5 (Level 5: growth control rate is above 85%) and the “Weeding effect … Setaria viridis (level)” value (Setaria viridis; Dose 60 g/ha) is reported as 5 (Level 5: growth control rate is above 85%). The “Weeding effect … Abutilon theophrasti (level)” value (Abutilon theophrasti; Dose 60 g/ha) was 5 (Level 5: growth control rate is above 85%), the “Weeding effect … Eleusine indica (level)” value (Eleusine indica; Dose 60 g/ha) was 5 (Level 5: growth control rate is above 85%) and the “Weeding effect … Echinochloa crusgalli (level)” value (Echinochloa crusgalli; Dose 60 g/ha) was 5 (Level 5: growth control rate is above 85%).
